Assays:
M catarrhalis (Mcat-res) = assay: broth test of alpha 4 co-cultured with resistant M catarrhalis (Mcat-res), with amitrole; type: cell-based; conditions: amitrole 50 mM in broth, 7 hours, 37° C.
Protocol: Amitrole is an irreversible catalase inhibitor [12]. If an increased or more efficient catalase production was involved in the development of resistance of M cararrhalis to an isolate of AHS. This resistance would be reverted by addition of amitrole. In broth tests with alpha 4 together with M catarrhalis in 5 ml broth, 50 mM (0.1 ml) of amitrole (3-amino-1,2,4-triazole), was added into the solution and incubated for 7 hours at 37° C. in air with intermittent shaking. The isolate of M catarrhalis (Mcat-res) had developed resistance against alpha 4 after co-culturing in broth. CFU counts were calculated at start and after 7 hours of incubation. Alpha 4 with M catarrhalis in broth without amitrole, broth and M catarrhalis alone and M catarrhalis alone with amitrole in broth served as controls.

H influenzae = assay: filtrate test: inhibitory effect of cell-free PBS filtrate of AHS on growth (CFU) of H influenzae; type: cell-based
Protocol: Numbers of colony forming units (CFU) were counted after serial dilutions in PBS and growth over night at 37° C. in air. Identification of the bacteria was based on different morphology of the isolates growing on the agar plates. AHS and M catarrhalis were grown on agar plates with 7% human blood and McLeod plates were used when H influenzae was assayed.
To achieve a filtrate with inhibitory activity, about 10^6 CFU of AHS were inoculated in 4 vials, each containing 15 ml of broth and incubated for 12 hours. The suspension was then centrifuged at 3000 rpm for 15 min and the supernatant was thrown away. The bacteria were transferred into one vial and two ml of phosphate buffered saline (PBS) was added and incubated at 37° C. for 5 hours. The suspension was then passed through a 0.2 μm sterile filter to remove the bacteria. Otitis media pathogens (0.1 ml) were then added to the filtrate (1 ml) and incubated at 37° C. The controls were incubated in fresh PBS.
Catalase is a specific enzyme catalyzing the conversion of H2O2 into O2 and H2O. This reaction proceeds rapidly. Purified catalase from human erythrocytes (>30.000U/mg) was used in the assays. The assays were performed as described above in the filtrate tests, with the exception that catalase, 1000 U/ml (=0.01 ml), was added to the vials with filtrate and PBS. […]

[1] = trypsin tested together with hydrogen peroxide for catalase effect; type: biochemical

Nc1nc[nH]n1 [amitrole, 3-amino-1,2,4-triazole]
sensitivity of resistant M catarrhalis to inhibition of alpha 4 when amitrole added (M catarrhalis (Mcat-res)): became sensitive

Trypsin
reversal of the inhibitory effect of the cell-free filtrate of alpha 89 (H influenzae; trypsin 2.5 mg/ml, filtrate incubated with H influenzae): only slightly reverse | catalase effect [1]: no catalase effect

B1: Catalase: Purified catalase from human erythrocytes; enzyme catalyzing the conversion of H2O2 into O2 and H2O (protein, UniProt P04040 2-527, looked up)
Catalase: ADSRDPASDQMQHWKEQRAAQKADVLTTGAGNPVGDKLNVITVGPRGPLLVQDVVFTDEMAHFDRERIPERVVHAKGAGAFGYFEVTHDITKYSKAKVFEHIGKKTPIAVRFSTVAGESGSADTVRDPRGFAVKFYTEDGNWDLVGNNTPIFFIRDPILFPSFIHSQKRNPQTHLKDPDMVWDFWSLRPESLHQVSFLFSDRGIPDGHRHMNGYGSHTFKLVNANGEAVYCKFHYKTDQGIKNLSVEDAARLSQEDPDYGIRDLFNAIATGKYPSWTFYIQVMTFNQAETFPFNPFDLTKVWPHKDYPLIPVGKLVLNRNPVNYFAEVEQIAFDPSNMPPGIEASPDKMLQGRLFAYPDTHRHRLGPNYLHIPVNCPYRARVANYQRDGPMCMQDNQGGAPNYYPNSFGAPEQQPSALEHSIQYSGEVRRFNTANDDNVTQVRAFYVNVLNEEQRKRLCENIAGHLKDAQIFIQKKAVKNFTEVHPDYGSHIQALLDKYNAEKPKNAIHTFVQSGSHLAAREKANL
reversal of the inhibitory effect of the cell-free filtrate of AHS (H influenzae; catalase 1000U/ml, filtrate of alpha 89 incubated with H influenzae): completely reverse

Source: patent US20050238635A1, “Use of hyrogen peroxide producting enzyme for treatment of otitis media” (priority 2002, published 2005)
